In patent US20230265151A1, “GIP/GLP1 CO-AGONIST COMPOUNDS” (priority 2020, published 2023):
Where two headings read alike, the source gives them in different places. *1 amine or outer side, *2 acyl side, *3 side chain or, on linkers, in order; H or OH if unused. Where a SMILES comes first, the peptide text is derived from it. Side-chain parts run from the residue outwards. [ ]: non-standard residue; d: D form. The star is where a group is joined. αMePhe(2-F) = C[C@](N)(Cc1ccccc1F)C(=O)O; γGlu = O=C(O)[C@H](CCC(=O)[*:2])N[*:1]; αMeY = C[C@](N)(Cc1ccc(O)cc1)C(=O)O; αMeF = C[C@](N)(Cc1ccccc1)C(=O)O; 4Pal = N[C@@H](Cc1ccncc1)C(=O)O; αMeL = CC(C)C[C@](C)(N)C(=O)O; Lauroyl = CCCCCCCCCCCC(=O)*; Orn = NCCC[C@H](N)C(=O)O; AEEA = NCCOCCOCC(=O)O; Aib = CC(C)(N)C(=O)O

Legend:
Format in all cases: cell-based
[1] = molecular target: T1, hGCGR (Homo sapiens, UniProt P47871); test: Functional cAMP formation (HTRF) in HEK-293 clonal cells expressing hGCGR, 0.1% bovine casein, without or with 1.0% human serum albumin
T1 construct: expressed in transfected cells
T1 sequence (P47871 26-477): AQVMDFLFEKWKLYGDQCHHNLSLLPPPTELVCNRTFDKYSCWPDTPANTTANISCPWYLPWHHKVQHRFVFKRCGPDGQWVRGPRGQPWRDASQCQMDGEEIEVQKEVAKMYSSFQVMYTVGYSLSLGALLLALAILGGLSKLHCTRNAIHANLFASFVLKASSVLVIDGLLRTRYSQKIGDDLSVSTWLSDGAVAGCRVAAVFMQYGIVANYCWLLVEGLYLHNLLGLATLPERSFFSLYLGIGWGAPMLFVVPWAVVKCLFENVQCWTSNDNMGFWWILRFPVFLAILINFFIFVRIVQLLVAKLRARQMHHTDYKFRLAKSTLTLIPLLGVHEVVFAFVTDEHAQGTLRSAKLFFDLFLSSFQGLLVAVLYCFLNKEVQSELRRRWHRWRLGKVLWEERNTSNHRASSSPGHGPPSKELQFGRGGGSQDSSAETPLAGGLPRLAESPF
How it was run: (§1)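 Cells were stimulated with peptide for 30 min at 37° C, then intracellular cAMP was measured by competitive HTRF (665/620 nm ratio) and converted to nM using a cAMP standard curve. Relative EC50 and Emax came from four-parameter logistic fits of percent maximal response against peptide concentration.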

[2] = molecular target: hGLP-1R (Homo sapiens, UniProt P43220); test: Functional cAMP formation (HTRF) in HEK-293 clonal cells expressing hGLP-1R, 0.1% bovine casein, without or with 1.0% human serum albumin; design: expressed in transfected cells; settings: 37° C.; for Emax: HEK293, cAMP, percent of maximal response to GLP-1(7-36)NH2, read-out: hGLP-1R Emax, % ± SEM
Sequence of hGLP-1R (P43220 24-463): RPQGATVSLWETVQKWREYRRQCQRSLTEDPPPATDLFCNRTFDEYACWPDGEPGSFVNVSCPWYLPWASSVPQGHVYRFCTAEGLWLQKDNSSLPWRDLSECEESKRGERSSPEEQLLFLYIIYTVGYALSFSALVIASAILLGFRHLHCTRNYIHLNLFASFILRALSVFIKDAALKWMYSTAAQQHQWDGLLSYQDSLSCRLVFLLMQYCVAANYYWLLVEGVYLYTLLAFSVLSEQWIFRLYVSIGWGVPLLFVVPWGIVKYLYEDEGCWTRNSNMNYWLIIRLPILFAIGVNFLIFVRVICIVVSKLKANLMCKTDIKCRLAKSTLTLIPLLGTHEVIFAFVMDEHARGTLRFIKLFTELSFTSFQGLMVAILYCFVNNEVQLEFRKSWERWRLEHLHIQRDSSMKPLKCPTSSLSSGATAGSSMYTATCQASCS
How it was run: as §1

[3] = molecular target: T2, hGIPR (Homo sapiens, UniProt P48546); test: Functional cAMP formation (HTRF) in HEK-293 clonal cells expressing hGIPR, 0.1% bovine casein, without or with 1.0% human serum albumin; settings: for EC50: geometric mean
T2 construct: expressed in transfected cells
T2 sequence (P48546 22-466): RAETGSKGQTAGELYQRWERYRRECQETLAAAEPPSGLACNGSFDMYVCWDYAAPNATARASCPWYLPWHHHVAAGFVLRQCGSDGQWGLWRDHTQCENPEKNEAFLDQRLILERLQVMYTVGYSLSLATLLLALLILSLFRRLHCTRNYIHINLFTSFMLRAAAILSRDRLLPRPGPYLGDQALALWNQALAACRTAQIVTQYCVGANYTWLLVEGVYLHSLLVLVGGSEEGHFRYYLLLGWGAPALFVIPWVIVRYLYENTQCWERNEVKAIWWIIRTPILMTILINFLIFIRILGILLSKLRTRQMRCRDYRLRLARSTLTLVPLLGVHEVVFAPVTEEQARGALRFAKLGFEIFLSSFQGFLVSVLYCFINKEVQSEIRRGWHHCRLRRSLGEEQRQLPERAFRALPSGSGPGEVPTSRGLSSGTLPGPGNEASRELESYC
How it was run: as §1

[4] = hGCGR EC50, nM (SEM, n), cAMP, 37° C., 0.1% bovine casein (no human serum albumin), geometric mean
[5] = hGLP-1R EC50, nM (SEM, n), cAMP, 0.1% bovine casein (no human serum albumin), geometric mean
[6] = HEK293, read-out: hGIPR Emax, % ± SEM, cAMP, 37° C., 0.1% bovine casein, percent of maximal response to GIP(1-42)NH2, arithmetic mean

CC[C@H](C)[C@H](NC(=O)[C@H](CC(C)C)NC(=O)[C@](C)(Cc1ccc(O)cc1)NC(=O)[C@@H](CCC(=O)O)NC(=O)[C@@H](NC(=O)[C@H](Cc1ccccc1)NC(=O)[C@H](CCC(=O)O)NC(=O)C(C)(C)NC(=O)[C@H](CCC(N)=O)NC(=O)[C@H](C)NC(=O)[C@H](CCCCNC(=O)COCCOCCNC(=O)CC[C@H](NC(=O)CCCCCCCCCCCCC(=O)O)C(=O)O)NC(=O)[C@H](CCCN)NC(=O)[C@H](CC(=O)O)NC(=O)[C@H](CC(C)C)NC(=O)[C@](C)(CC(C)C)NC(=O)[C@@H](NC(=O)[C@H](CO)NC(=O)[C@H](Cc1ccncc1)NC(=O)[C@H](CC(=O)O)NC(=O)[C@H](CO)NC(=O)[C@@H](NC(=O)[C@](C)(Cc1ccccc1F)NC(=O)[C@@H](NC(=O)CNC(=O)[C@H](CCC(=O)O)NC(=O)C(C)(C)NC(=O)[C@@H](N)Cc1ccc(O)cc1)[C@@H](C)O)[C@@H](C)O)[C@@H](C)CC)[C@@H](C)CC)C(=O)N[C@@H](CCC(=O)O)C(=O)NCC(=O)NCC(=O)N[C@@H](CCCCNC(=O)COCCOCCNC(=O)CC[C@H](NC(=O)CCCCCCCCCCCCC(=O)O)C(=O)O)C(=O)N[C@@H](CO)C(=O)N[C@@H](CO)C(=O)NCC(=O)N[C@@H](C)C(=O)N1CCC[C@H]1C(=O)N1CCC[C@H]1C(=O)N1CCC[C@H]1C(=O)N[C@@H](CO)C(N)=O [Example 11]
EC50 ([1]; 0.1% bovine casein and 1.0% human serum albumin, 37° C., geometric mean, read-out: hGCGR EC50, nM (SEM, n)): > 9950 nM | EC50 ([1]; cAMP, incubated at 37° C., 0.1% bovine casein (no human serum albumin), geometric mean, read-out: hGCGR EC50, nM (SEM, n)): > 9950 nM | EC50 ([2]; 0.1% bovine casein and 1.0% human serum albumin, geometric mean, read-out: hGLP-1R EC50, nM (SEM, n)): 34.5 nM | EC50 ([3]; 0.1% bovine casein and 1.0% human serum albumin, 37° C., read-out: hGIPR EC50, nM (SEM, n)): 1.22 nM | Emax ([3]; HEK293, 0.1% bovine casein and 1.0% human serum albumin, 37° C., percent of maximal response to GIP(1-42)NH2, read-out: hGIPR Emax, % ± SEM): 90 ± 2.71% | Emax ([3]; HEK293, percent of maximal response to GIP(1-42)NH2, 37° C., 0.1% bovine casein, arithmetic mean, read-out: hGIPR Emax, % ± SEM): 97.7 ± 2.82% | EC50 ([3]; cAMP, incubated at 37° C., 0.1% bovine casein (no human serum albumin), read-out: hGIPR EC50, nM (SEM, n)): 0.0135 nM

CCCC[C@H](NC(=O)[C@H](CC(=O)O)NC(=O)[C@H](CO)NC(=O)[C@@H](NC(=O)[C@](C)(Cc1ccccc1F)NC(=O)[C@@H](NC(=O)CNC(=O)[C@H](CCC(=O)O)NC(=O)C(C)(C)NC(=O)[C@@H](N)Cc1ccc(O)cc1)[C@@H](C)O)[C@@H](C)O)C(=O)N[C@@H](CO)C(=O)N[C@H](C(=O)N[C@@](C)(CC(C)C)C(=O)N[C@@H](CC(C)C)C(=O)N[C@@H](CC(=O)O)C(=O)N[C@@H](CCCN)C(=O)N[C@H](C(=O)N[C@@H](C)C(=O)N[C@@H](CCC(N)=O)C(=O)NC(C)(C)C(=O)N[C@@H](CCC(=O)O)C(=O)N[C@@H](Cc1ccccc1)C(=O)N[C@H](C(=O)N[C@@H](CCCCNC(=O)COCCOCCNC(=O)COCCOCCNC(=O)CC[C@H](NC(=O)CCCCCCCCCOc1ccc(C(=O)O)cc1)C(=O)O)C(=O)N[C@@](C)(Cc1ccc(O)cc1)C(=O)N[C@@H](CC(C)C)C(=O)N[C@H](C(=O)N[C@@H](CCCCNC(=O)COCCOCCNC(=O)COCCOCCNC(=O)CC[C@H](NC(=O)CCCCCCCCCOc1ccc(C(=O)O)cc1)C(=O)O)C(=O)NCC(=O)NCC(=O)N1CCC[C@H]1C(=O)N[C@@H](CO)C(=O)N[C@@H](CO)C(=O)NCC(=O)N[C@@H](C)C(=O)N1CCC[C@H]1C(=O)N1CCC[C@H]1C(=O)N1CCC[C@H]1C(=O)N[C@@H](CO)C(N)=O)[C@@H](C)CC)[C@@H](C)CC)[C@@H](C)CC)[C@@H](C)CC [Example 314]
EC50 ([1]; hGCGR EC50, nM (SEM, n), 0.1% bovine casein and 1.0% human serum albumin, 37° C., geometric mean): > 9950 nM | EC50 [1, 4]: > 9950 nM | EC50 [2, 5]: 0.673 nM | Emax [3, 6]: 100%

CCCCCCCCCCCC(=O)N[C@@H](CCC(=O)NCCOCCOCC(=O)NCCOCCOCC(=O)NCCOCCOCC(=O)NCCCC[C@H](NC(=O)[C@H](CCCN)NC(=O)[C@H](CC(=O)O)NC(=O)[C@H](CC(C)C)NC(=O)[C@](C)(CC(C)C)NC(=O)[C@@H](NC(=O)C(C)(C)NC(=O)[C@H](Cc1ccncc1)NC(=O)[C@H](CC(=O)O)NC(=O)[C@H](CO)NC(=O)[C@@H](NC(=O)[C@](C)(Cc1ccccc1F)NC(=O)[C@@H](NC(=O)CNC(=O)[C@H](CCC(=O)O)NC(=O)C(C)(C)NC(=O)[C@@H](N)Cc1ccc(O)cc1)[C@@H](C)O)[C@@H](C)O)[C@@H](C)CC)C(=O)N[C@@H](C)C(=O)N[C@@H](CCC(N)=O)C(=O)NC(C)(C)C(=O)N[C@@H](CCC(=O)O)C(=O)N[C@@](C)(Cc1ccccc1)C(=O)N[C@H](C(=O)N[C@H](CCC(=O)O)C(=O)N[C@@](C)(Cc1ccc(O)cc1)C(=O)N[C@@H](CC(C)C)C(=O)N[C@H](C(=O)N[C@@H](CCCCNC(=O)COCCOCCNC(=O)COCCOCCNC(=O)COCCOCCNC(=O)CC[C@H](NC(=O)CCCCCCCCCCC)C(=O)O)C(=O)NCC(=O)NCC(=O)N1CCC[C@H]1C(=O)N[C@@H](CO)C(=O)N[C@@H](CO)C(=O)NCC(=O)N[C@@H](C)C(=O)N1CCC[C@H]1C(=O)N1CCC[C@H]1C(=O)N1CCC[C@H]1C(=O)N[C@@H](CO)C(N)=O)[C@@H](C)CC)[C@@H](C)CC)C(=O)O [Example 438] (H-Y[Aib]EGT[αMePhe(2-F)]TSD[4Pal][Aib]I[αMeL]LD[Orn]K([AEEA-AEEA-AEEA-γGlu-Lauroyl])AQ[Aib]E[αMeF]I[dE][αMeY]LIK([AEEA-AEEA-AEEA-γGlu-Lauroyl])GGPSSGAPPPS-NH2)
EC50 ([1]; cAMP, 37° C., 0.1% bovine casein (no human serum albumin), geometric mean, read-out: hGCGR EC50, nM (SEM, n)): > 9950 nM | EC50 ([1]; cAMP, 37° C., 0.1% bovine casein and 1.0% human serum albumin, geometric mean (SEM, n), read-out: hGCGR EC50, nM (SEM, n)): > 9950 nM | Emax ([2]; 0.1% bovine casein and 1.0% human serum albumin): 88.7% | Emax ([2]; 0.1% bovine casein, arithmetic mean): 88.5% | EC50 ([2]; cAMP, 0.1% bovine casein (no human serum albumin), geometric mean, read-out: hGLP-1R EC50, nM (SEM, n)): 0.471 nM | EC50 ([2]; cAMP, 0.1% bovine casein and 1.0% human serum albumin, geometric mean (SEM, n), read-out: hGLP-1R EC50, nM (SEM, n)): 28 nM | Emax ([3]; HEK293, cAMP, 37° C., 0.1% bovine casein and 1.0% human serum albumin, percent of maximal response to GIP(1-42)NH2, read-out: hGIPR Emax, % ± SEM): 90.8% | Emax ([3]; HEK293, cAMP, 37° C., 0.1% bovine casein, percent of maximal response to GIP(1-42)NH2, arithmetic mean, read-out: hGIPR Emax, % ± SEM): 98.9% | EC50 ([3]; cAMP, 37° C., 0.1% bovine casein (no human serum albumin), read-out: hGIPR EC50, nM (SEM, n)): 0.0157 nM

CC[C@H](C)[C@H](NC(=O)[C@H](CC(C)C)NC(=O)[C@](C)(Cc1ccc(O)cc1)NC(=O)[C@@H](CCC(=O)O)NC(=O)[C@@H](NC(=O)[C@H](Cc1ccccc1)NC(=O)[C@H](CCC(=O)O)NC(=O)C(C)(C)NC(=O)[C@H](CCC(N)=O)NC(=O)[C@H](C)NC(=O)[C@H](CCCCNC(=O)COCCOCCNC(=O)CC[C@H](NC(=O)CCCCCCCCCOc1ccc(C(=O)O)cc1)C(=O)O)NC(=O)[C@H](CCCN)NC(=O)[C@H](CC(=O)O)NC(=O)[C@H](CC(C)C)NC(=O)[C@](C)(CC(C)C)NC(=O)[C@@H](NC(=O)C(C)(C)NC(=O)[C@H](Cc1ccc(O)cc1)NC(=O)[C@H](CC(=O)O)NC(=O)[C@H](CO)NC(=O)[C@@H](NC(=O)[C@](C)(Cc1ccccc1F)NC(=O)[C@@H](NC(=O)CNC(=O)[C@H](CCC(=O)O)NC(=O)C(C)(C)NC(=O)[C@@H](N)Cc1ccc(O)cc1)[C@@H](C)O)[C@@H](C)O)[C@@H](C)CC)[C@@H](C)CC)C(=O)N[C@@H](CCC(=O)O)C(=O)NCC(=O)NCC(=O)N1CCC[C@H]1C(=O)N[C@@H](CO)C(=O)N[C@@H](CO)C(=O)NCC(=O)N[C@@H](C)C(=O)N1CCC[C@H]1C(=O)N1CCC[C@H]1C(=O)N1CCC[C@H]1C(=O)N[C@@H](CO)C(=O)N[C@@H](CCCCNC(=O)COCCOCCNC(=O)CC[C@H](NC(=O)CCCCCCCCCOc1ccc(C(=O)O)cc1)C(=O)O)C(N)=O [Example 374]
EC50 [1, 4]: > 9950 nM | EC50 ([1]; hGCGR EC50, nM (SEM, n), cAMP, 37° C., 0.1% bovine casein and 1.0% human serum albumin, geometric mean (SEM, n)): > 9950 nM | EC50 [2, 5]: 0.269 nM | Emax ([3]; HEK293, read-out: hGIPR Emax, % ± SEM, cAMP, 37° C., 0.1% bovine casein and 1.0% human serum albumin, percent of maximal response to GIP(1-42)NH2): 88.8% | Emax [3, 6]: 96.2% | EC50 ([3]; hGIPR EC50, nM (SEM, n), cAMP, 37° C., 0.1% bovine casein (no human serum albumin)): 0.0135 nM
